From US8410302B2, “Methoxyimino compounds and fungicide composition comprising same” (Kyung Nong Corporation, priority 2007, dated 2013)
Read-outs that look alike come from different tables or passages of the source.

Assays:
Botrytis cinerae = assay: Fungicidal activity against cucumber gray mold rot (CGM) disease, control value; type: in vivo; details: 100 ppm; for pest or weed control at 100 ppm: Botrytis, read-out: CGM control value (C.V.)
Phytophthora infestans = assay: whole plant or invertebrate; type: in vivo
Rhizoctonia solani AG-1 = assay: Fungicidal activity against rice sheath blight (RSB) disease, control value; details: for pest or weed control at 100 ppm / pest or weed control at 2 ppm / pest or weed control at 10 ppm / pest or weed control at 50 ppm: Rhizoctonia solani, AG1, in Oryza sativa, read-out: RSB control value (C.V.)
Erysiphae graminis = assay: Fungicidal activity against barley powdery mildew (BPM) disease, control value; type: in vivo; details: for pest or weed control at 2 ppm / pest or weed control at 10 ppm / pest or weed control at 50 ppm / pest or weed control at 100 ppm: 168 h, read-out: BPM control value (C.V.)
[1] = test system: Pyricularia oryzae Carvara KA301; assay: whole plant or invertebrate; type: in vivo; details: for pest or weed control at 2 ppm / pest or weed control at 10 ppm / pest or weed control at 50 ppm / pest or weed control at 100 ppm: Pyricularia oryzae, read-out: RCB control value (C.V.)
Puccinia recondita = assay: Fungicidal activity against wheat leaf rust (WLR) disease, control value; type: in vivo; details: for pest or weed control at 2 ppm / pest or weed control at 10 ppm / pest or weed control at 50 ppm / pest or weed control at 100 ppm: read-out: WLR control value (C.V.)
[2] = Phytophthora infestans, in Solanum lycopersicum, read-out: TLB control value (C.V.)
[3] = Hordeum vulgare, 2 ppm, barley powdery mildew
[4] = Hordeum vulgare, 10 ppm, barley powdery mildew
[5] = Hordeum vulgare, 50 ppm, barley powdery mildew
[6] = Hordeum vulgare, 100 ppm, barley powdery mildew

`CO/N=C(/C(=O)OC)c1ccccc1COc1ccc(C=C(Cl)Br)cc1` [Example 17, methyl-(2E)-2-(2-((4-(2-bromo-2-chlorovinyl)phenoxy)methyl)phenyl)-2-methoxyiminoacetate] was tested, and the pest or weed control at 100 ppm (Botrytis cinerae; cucumber gray mold rot) was 50%, the pest or weed control at 10 ppm (Phytophthora infestans; [2]) was 10% and the pest or weed control at 50 ppm (Phytophthora infestans; [2]) was 90%. It also gave a pest or weed control at 100 ppm (Phytophthora infestans; [2]) of 100%, a pest or weed control at 100 ppm (Rhizoctonia solani AG-1) of 90% and a pest or weed control at 2 ppm (Erysiphae graminis; [3]) of 35%. For the same compound, the pest or weed control at 10 ppm (Erysiphae graminis; [4]) was 90%, the pest or weed control at 50 ppm (Erysiphae graminis; [5]) was 93% and the pest or weed control at 100 ppm (Erysiphae graminis; [6]) was 95%. The pest or weed control at 2 ppm [1] was 70%, the pest or weed control at 10 ppm [1] was 100% and the pest or weed control at 50 ppm [1] was 100%. It also gave a pest or weed control at 100 ppm [1] of 100%, a pest or weed control at 2 ppm (Puccinia recondita; 2 ppm, wheat leaf rust) of 100% and a pest or weed control at 10 ppm (Puccinia recondita; 10 ppm, wheat leaf rust) of 100%. It also gave a pest or weed control at 50 ppm (Puccinia recondita; 50 ppm, wheat leaf rust) of 100% and a pest or weed control at 100 ppm (Puccinia recondita; 100 ppm, wheat leaf rust) of 100%.

With `CO/N=C(/C(=O)OC)c1ccccc1CON=C(C)c1cccc(C=C(Cl)Cl)c1` [Example 19, methyl-(E)-2-[[[[[2-[3-(2,2-dichlorovinyl)phenyl](1-methyl)methylidene]amino]oxy]methyl]phenyl]-2-methoxyiminoacetate] the “CGM control value (C.V.)” value (Botrytis cinerae; cucumber gray mold rot) was 59%, the “TLB control value (C.V.)” value (Phytophthora infestans; 2 ppm, tomato late blight) was 80% and the “TLB control value (C.V.)” value (Phytophthora infestans; 10 ppm, tomato late blight) was 92%. The “TLB control value (C.V.)” value (Phytophthora infestans; 50 ppm, tomato late blight) was 100%, the “TLB control value (C.V.)” value (Phytophthora infestans; 100 ppm, tomato late blight) was 100% and the “RSB control value (C.V.)” value (Rhizoctonia solani AG-1; 100 ppm, rice sheath blight) was 80%. The “BPM control value (C.V.)” value (Erysiphae graminis; 2 ppm, barley powdery mildew) was 100%, the “BPM control value (C.V.)” value (Erysiphae graminis; 10 ppm, barley powdery mildew) was 100% and the “BPM control value (C.V.)” value (Erysiphae graminis; 50 ppm, barley powdery mildew) was 100%. For the same compound, the “BPM control value (C.V.)” value (Erysiphae graminis; 100 ppm, barley powdery mildew) was 100%, the “RCB control value (C.V.)” value ([1]; 2 ppm, rice blast) was 98% and the “RCB control value (C.V.)” value ([1]; 10 ppm, rice blast) was 100%. For the same compound, the “RCB control value (C.V.)” value ([1]; 50 ppm, rice blast) was 100%, the “RCB control value (C.V.)” value ([1]; 100 ppm, rice blast) was 100% and the “WLR control value (C.V.)” value (Puccinia recondita; 2 ppm, wheat leaf rust) was 98%. The “WLR control value (C.V.)” value (Puccinia recondita; 10 ppm, wheat leaf rust) was 100%, the “WLR control value (C.V.)” value (Puccinia recondita; 50 ppm, wheat leaf rust) was 100% and the “WLR control value (C.V.)” value (Puccinia recondita; 100 ppm, wheat leaf rust) was 100%.

`CNC(=O)/C(=N/OC)c1ccccc1COc1cccc(C=C(Cl)Cl)c1Cl` [Example 44, (E)-2-(2-((2-chloro-3-(2,2-dichlorovinyl)phenoxy)methyl)phenyl)-2-methoxyimino-N-methylacetamide] was tested, and the pest or weed control at 100 ppm (Botrytis cinerae; cucumber gray mold rot) was 10%, the pest or weed control at 2 ppm (Phytophthora infestans; [2]) was 95% and the pest or weed control at 10 ppm (Phytophthora infestans; [2]) was 100%. For the same compound, the pest or weed control at 50 ppm (Phytophthora infestans; [2]) was 100%, the pest or weed control at 100 ppm (Phytophthora infestans; [2]) was 100% and the pest or weed control at 2 ppm (Rhizoctonia solani AG-1) was 90%. It also gave a pest or weed control at 10 ppm (Rhizoctonia solani AG-1) of 100%, a pest or weed control at 50 ppm (Rhizoctonia solani AG-1) of 100% and a pest or weed control at 100 ppm (Rhizoctonia solani AG-1) of 100%. It also gave a pest or weed control at 2 ppm (Erysiphae graminis; [3]) of 100%, a pest or weed control at 10 ppm (Erysiphae graminis; [4]) of 100% and a pest or weed control at 50 ppm (Erysiphae graminis; [5]) of 100%. For the same compound, the pest or weed control at 100 ppm (Erysiphae graminis; [6]) was 100%, the pest or weed control at 2 ppm [1] was 100% and the pest or weed control at 10 ppm [1] was 100%. The pest or weed control at 50 ppm [1] was 100%, the pest or weed control at 100 ppm [1] was 100% and the pest or weed control at 2 ppm (Puccinia recondita; 2 ppm, wheat leaf rust) was 100%. For the same compound, the pest or weed control at 10 ppm (Puccinia recondita; 10 ppm, wheat leaf rust) was 100%, the pest or weed control at 50 ppm (Puccinia recondita; 50 ppm, wheat leaf rust) was 100% and the pest or weed control at 100 ppm (Puccinia recondita; 100 ppm, wheat leaf rust) was 100%.

`CNC(=O)/C(=N/OC)c1ccccc1COc1c(OC)ccc(C=C(Br)Br)c1Br` [Example 76] was tested, and the “CGM control value (C.V.)” value (Botrytis cinerae) was 45%, the “TLB control value (C.V.)” value (Phytophthora infestans; 2 ppm) was 70% and the “TLB control value (C.V.)” value (Phytophthora infestans; 10 ppm) was 90%. The “TLB control value (C.V.)” value (Phytophthora infestans; 50 ppm) was 98%, the “TLB control value (C.V.)” value (Phytophthora infestans; 100 ppm) was 100% and the “RSB control value (C.V.)” value (Rhizoctonia solani AG-1; 2 ppm) was 65%. For the same compound, the “RSB control value (C.V.)” value (Rhizoctonia solani AG-1; 10 ppm) was 98%, the “RSB control value (C.V.)” value (Rhizoctonia solani AG-1; 50 ppm) was 100% and the “RSB control value (C.V.)” value (Rhizoctonia solani AG-1; 100 ppm) was 100%. For the same compound, the “BPM control value (C.V.)” value (Erysiphae graminis; 2 ppm) was 95%, the “BPM control value (C.V.)” value (Erysiphae graminis; 10 ppm) was 100% and the “BPM control value (C.V.)” value (Erysiphae graminis; 50 ppm) was 100%. The “BPM control value (C.V.)” value (Erysiphae graminis; 100 ppm) was 100%, the “RCB control value (C.V.)” value ([1]; 2 ppm) was 30% and the “RCB control value (C.V.)” value ([1]; 10 ppm) was 90%. For the same compound, the “RCB control value (C.V.)” value ([1]; 50 ppm) was 100%, the “RCB control value (C.V.)” value ([1]; 100 ppm) was 100% and the “WLR control value (C.V.)” value (Puccinia recondita; 2 ppm) was 95%. The “WLR control value (C.V.)” value (Puccinia recondita; 10 ppm) was 100%, the “WLR control value (C.V.)” value (Puccinia recondita; 50 ppm) was 100% and the “WLR control value (C.V.)” value (Puccinia recondita; 100 ppm) was 100%.

`CNC(=O)/C(=N/OC)c1ccccc1COc1ccc(C=C(Br)Br)c(Cl)c1` [Example 82, (E)-2-(2-((4-(2,2-dibromovinyl)-3-chlorophenoxy)methyl)phenyl)-2-methoxyimino-N-methylacetamide] gave a pest or weed control at 100 ppm (Botrytis cinerae) of 0%, a pest or weed control at 10 ppm (Phytophthora infestans; [2]) of 30% and a pest or weed control at 50 ppm (Phytophthora infestans; [2]) of 90%. It also gave a pest or weed control at 100 ppm (Phytophthora infestans; [2]) of 90%, a pest or weed control at 2 ppm (Rhizoctonia solani AG-1) of 70% and a pest or weed control at 10 ppm (Rhizoctonia solani AG-1) of 90%. The pest or weed control at 50 ppm (Rhizoctonia solani AG-1) was 99%, the pest or weed control at 100 ppm (Rhizoctonia solani AG-1) was 100% and the pest or weed control at 2 ppm (Erysiphae graminis; 2 ppm) was 5%. It also gave a pest or weed control at 10 ppm (Erysiphae graminis; 10 ppm) of 90%, a pest or weed control at 50 ppm (Erysiphae graminis; 50 ppm) of 95% and a pest or weed control at 100 ppm (Erysiphae graminis; 100 ppm) of 95%. For the same compound, the pest or weed control at 2 ppm [1] was 70%, the pest or weed control at 10 ppm [1] was 90% and the pest or weed control at 50 ppm [1] was 100%. The pest or weed control at 100 ppm [1] was 100%, the pest or weed control at 2 ppm (Puccinia recondita; Puccinia recondita, 2 ppm) was 98% and the pest or weed control at 10 ppm (Puccinia recondita; Puccinia recondita, 10 ppm) was 100%. For the same compound, the pest or weed control at 50 ppm (Puccinia recondita; Puccinia recondita, 50 ppm) was 100% and the pest or weed control at 100 ppm (Puccinia recondita; Puccinia recondita, 100 ppm) was 100%.
